Measured values: ChEMBL document CHEMBL1201862, “PubChem BioAssay data set” (2004)
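Method: 48-hour compound exposure of cells in 96-well plates, five concentrations, linear interpolation of endpoints. GI50 = concentration required for 50% inhibition of growth.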 Activity calls are given as the source filed them. Rule as the data show it: active = GI50 up to about 1.1 µM and inactive = higher.

Tests used:
Test in all cases: inhibition of tumour cell growth, NCI panel, 48 h
[1] = tested on: 786-0
[2] = tested on: A549
[3] = tested on: CCRF-CEM
[4] = tested on: HCC 2998
[5] = tested on: HOP-92
[6] = tested on: LOX IMVI
[7] = tested on: M14
[8] = tested on: Malme-3M
[9] = tested on: NCI-H226
[10] = tested on: NCI-H460
[11] = tested on: OVCAR-4
[12] = tested on: PC-3
[13] = tested on: RPMI-8226
[14] = tested on: SK-MEL-5
[15] = tested on: SK-OV-3
[16] = tested on: SNB-19
[17] = tested on: SR
[18] = tested on: SW-620
[19] = tested on: U-251
[20] = tested on: HT-29

Structure (SMILES)	GI50 [1]	GI50 [2]	GI50 [3]	GI50 [4]	GI50 [5]	GI50 [6]	GI50 [7]	GI50 [8]	GI50 [9]	GI50 [10]	GI50 [11]	GI50 [12]	GI50 [13]	GI50 [14]	GI50 [15]	GI50 [16]	GI50 [17]	GI50 [18]	GI50 [19]	GI50 [20]
C=C1C2C[C@@H]3O[C@H]4C[C@H]5O[C@@]6(C[C@@H]7O[C@]8(C[C@H](C)[C@@H]9O[C@@H]%10CC(CO)O[C@@H]%10C[C@@H]9O8)C[C@H](C)[C@@H]7O6)C[C@H]5O[C@H]4[C@H](C)[C@H]3OC(=O)C[C@H]3CC[C@@H]4OC5[C@H]6O[C@]7(CC[C@H]8CC(=C)[C@H](CC[C@@H](C[C@H]1C)O2)O8)CC6O[C@@H]5[C@@H](O7)[C@H]4O3 (some centres not stated)	< 0.0001 µM (active)	< 0.0001 µM (active)	< 0.0001 µM (active)	< 0.0001 µM (active)	< 0.0001 µM (active)	< 0.0001 µM (active)	< 0.0001 µM (active)	< 0.0001 µM (active)	< 0.0001 µM (active)	< 0.0001 µM (active)	> 0.635 µM (active)	< 0.0001 µM (active)	< 0.0001 µM (active)	< 0.0001 µM (active)	< 0.0001 µM (active)	< 0.0001 µM (active)	< 0.0001 µM (active)	< 0.0001 µM (active)	< 0.0001 µM (active)	–
CCCCCNc1nonc1N	> 100 µM (inactive)	> 100 µM (inactive)	> 31.6 µM (inactive)	> 100 µM (inactive)	> 100 µM (inactive)	> 100 µM (inactive)	> 100 µM (inactive)	> 100 µM (inactive)	> 100 µM (inactive)	> 100 µM (inactive)	> 88.3 µM (inactive)	> 100 µM (inactive)	> 100 µM (inactive)	> 100 µM (inactive)	> 100 µM (inactive)	> 100 µM (inactive)	> 100 µM (inactive)	> 100 µM (inactive)	> 100 µM (inactive)	> 100 µM (inactive)
O=C1CC(CC(=O)c2ccc(Br)cc2)C(O)=C1C(=O)c1ccc(Br)cc1 (configuration not stated)	> 100 µM (inactive)	> 100 µM (inactive)	53.2 µM (inactive)	> 100 µM (inactive)	30.1 µM (inactive)	79.1 µM (inactive)	85.5 µM (inactive)	69.7 µM (inactive)	> 100 µM (inactive)	50.7 µM (inactive)	–	98.2 µM (inactive)	> 100 µM (inactive)	> 100 µM (inactive)	> 100 µM (inactive)	56.2 µM (inactive)	44.3 µM (inactive)	> 100 µM (inactive)	45.4 µM (inactive)	49.2 µM (inactive)
COc1c(Cl)cc(NC(=S)C#N)cc1Cl	28.3 µM (inactive)	23.4 µM (inactive)	> 53.8 µM (inactive)	15.9 µM (inactive)	22.6 µM (inactive)	20 µM (inactive)	24.5 µM (inactive)	20.6 µM (inactive)	22.5 µM (inactive)	23.9 µM (inactive)	29.2 µM (inactive)	24.3 µM (inactive)	22.8 µM (inactive)	15.8 µM (inactive)	29.7 µM (inactive)	32.9 µM (inactive)	23.8 µM (inactive)	31.3 µM (inactive)	17.7 µM (inactive)	22.8 µM (inactive)
CCN(CC)CCC(=O)/C=C/c1ccccc1	2.67 µM (inactive)	19 µM (inactive)	3.57 µM (inactive)	19.5 µM (inactive)	10.4 µM (inactive)	2.54 µM (inactive)	15.7 µM (inactive)	15.9 µM (inactive)	19.4 µM (inactive)	12.1 µM (inactive)	21.1 µM (inactive)	12.8 µM (inactive)	1.97 µM (inactive)	18.4 µM (inactive)	–	18.1 µM (inactive)	3.41 µM (inactive)	5.89 µM (inactive)	12 µM (inactive)	5.05 µM (inactive)
c1ccc(COC[C@H]2C3OCC([C@H](OCc4ccccc4)[C@H]3OCc3ccccc3)N2Cc2ccccc2)cc1 (some centres not stated)	> 50.1 µM (inactive)	> 54.2 µM (inactive)	27.1 µM (inactive)	> 53 µM (inactive)	> 57.1 µM (inactive)	> 50.6 µM (inactive)	> 54 µM (inactive)	27.9 µM (inactive)	17.7 µM (inactive)	> 56.4 µM (inactive)	40 µM (inactive)	20.2 µM (inactive)	15.8 µM (inactive)	30.8 µM (inactive)	> 56.4 µM (inactive)	> 49.3 µM (inactive)	26.8 µM (inactive)	> 57 µM (inactive)	26.2 µM (inactive)	46.6 µM (inactive)
CC(C)(C)OC(=O)NNCC(O)COc1ccccc1 (configuration not stated)	> 100 µM (inactive)	> 100 µM (inactive)	> 100 µM (inactive)	> 100 µM (inactive)	> 100 µM (inactive)	> 100 µM (inactive)	> 100 µM (inactive)	> 100 µM (inactive)	> 100 µM (inactive)	> 100 µM (inactive)	> 100 µM (inactive)	> 100 µM (inactive)	> 100 µM (inactive)	> 100 µM (inactive)	> 100 µM (inactive)	> 100 µM (inactive)	> 100 µM (inactive)	> 100 µM (inactive)	> 100 µM (inactive)	> 100 µM (inactive)
O=C(Oc1cncc(Cl)c1)c1cc2ccccc2sc1=O	63.5 µM (inactive)	> 100 µM (inactive)	–	32.7 µM (inactive)	71.4 µM (inactive)	37.3 µM (inactive)	33.3 µM (inactive)	34.2 µM (inactive)	22.4 µM (inactive)	82.8 µM (inactive)	73.6 µM (inactive)	33 µM (inactive)	21.1 µM (inactive)	31.7 µM (inactive)	> 100 µM (inactive)	92.5 µM (inactive)	19.6 µM (inactive)	35.2 µM (inactive)	49.8 µM (inactive)	86.1 µM (inactive)
O=C1Nc2ccccc2/C1=N/NC(=S)N1CCCCC1	0.301 µM (active)	0.428 µM (active)	–	1.27 µM (inactive)	2.25 µM (inactive)	0.418 µM (active)	0.29 µM (active)	0.234 µM (active)	1.37 µM (inactive)	0.0841 µM (active)	1.53 µM (inactive)	0.337 µM (active)	0.299 µM (active)	0.0667 µM (active)	2.01 µM (inactive)	1.98 µM (inactive)	0.675 µM (active)	0.681 µM (active)	0.678 µM (active)	0.946 µM (active)
CC(C)=CCOc1cc(NC(=S)c2ccsc2C)ccc1Cl	40.2 µM (inactive)	46.7 µM (inactive)	39.6 µM (inactive)	3.49 µM (inactive)	5.87 µM (inactive)	30.7 µM (inactive)	–	49 µM (inactive)	13.5 µM (inactive)	12.4 µM (inactive)	16.7 µM (inactive)	17.8 µM (inactive)	15.7 µM (inactive)	36.1 µM (inactive)	24.5 µM (inactive)	31.8 µM (inactive)	18.7 µM (inactive)	> 100 µM (inactive)	20.7 µM (inactive)	> 100 µM (inactive)
CC[C@]12C=CCN3CCC4(c5cc(/N=N/c6ccccc6)c(OC)cc5N(C)[C@H]4[C@@](O)(C(=O)OC)[C@@H]1OC(C)=O)[C@@H]32 (some centres not stated)	16.9 µM (inactive)	17.5 µM (inactive)	–	17.9 µM (inactive)	15.4 µM (inactive)	17.3 µM (inactive)	20.6 µM (inactive)	17.8 µM (inactive)	24 µM (inactive)	16 µM (inactive)	17.1 µM (inactive)	14.7 µM (inactive)	19.2 µM (inactive)	19.9 µM (inactive)	–	20.5 µM (inactive)	19.4 µM (inactive)	23.1 µM (inactive)	15.9 µM (inactive)	16.3 µM (inactive)
C/C(Nc1ccc(F)cc1)=C1/CCOC1=O	> 100 µM (inactive)	90.4 µM (inactive)	> 100 µM (inactive)	25.6 µM (inactive)	> 100 µM (inactive)	2.25 µM (inactive)	–	> 100 µM (inactive)	91.6 µM (inactive)	> 100 µM (inactive)	> 100 µM (inactive)	46.5 µM (inactive)	> 100 µM (inactive)	12.9 µM (inactive)	–	> 100 µM (inactive)	> 100 µM (inactive)	> 100 µM (inactive)	> 100 µM (inactive)	> 100 µM (inactive)
COc1ccccc1OC(=O)/C=C/c1ccccc1	> 100 µM (inactive)	> 100 µM (inactive)	–	> 100 µM (inactive)	> 100 µM (inactive)	> 100 µM (inactive)	> 100 µM (inactive)	> 100 µM (inactive)	> 100 µM (inactive)	33 µM (inactive)	> 100 µM (inactive)	> 100 µM (inactive)	5.33 µM (inactive)	> 100 µM (inactive)	> 100 µM (inactive)	> 100 µM (inactive)	> 100 µM (inactive)	> 100 µM (inactive)	> 100 µM (inactive)	> 100 µM (inactive)
CC12CCC3[C@@H](CC3(C)C)C(O)(CCC1=O)C2 (some centres not stated)	> 100 µM (inactive)	> 100 µM (inactive)	> 100 µM (inactive)	> 100 µM (inactive)	> 100 µM (inactive)	> 100 µM (inactive)	> 100 µM (inactive)	> 100 µM (inactive)	> 100 µM (inactive)	–	> 100 µM (inactive)	> 100 µM (inactive)	> 100 µM (inactive)	> 100 µM (inactive)	> 100 µM (inactive)	–	> 100 µM (inactive)	> 100 µM (inactive)	> 100 µM (inactive)	> 100 µM (inactive)
